{"source": "the supplement of paper PMC10307832", "test_in_all_cases": "relative viability (nuclei count vs DMSO), 5 days (fraction); higher = more cells survive", "key": {"[1]": {"compound": "C[C@@H](N)c1ccc(C(=O)Nc2ccnc3[nH]ccc23)cc1 + CCNC(=O)c1noc(-c2cc(C(C)C)c(O)cc2O)c1-c1ccc(CN2CCOCC2)cc1 [Luminespib] (partner 0.01 µM)", "how_it_was_run": "(§1)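 Nuclei were stained with Hoechst during a one-step fixation (final 0.05% Triton X-100, 1% formaldehyde, 1 ug/ml Hoechst) carried out 5 days after dosing, then counted on 4× images. The cells, lung cancer lines in 1536-well plates, had been dosed by pin tool the day after seeding with one drug alone or a fixed anchor-drug dose plus five library-drug doses (not always all listed) in √10 steps. Relative viability is the nuclei count in treated wells divided by that in vehicle wells, and each value is the median of duplicate plates.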"}, "[2]": {"compound": "C[C@@H](N)c1ccc(C(=O)Nc2ccnc3[nH]ccc23)cc1 + Cc1cc(Nc2cc(N3CCN(C)CC3)nc(Sc3ccc(NC(=O)C4CC4)cc3)n2)n[nH]1 [Tozasertib] (partner 0.1 µM)", "how_it_was_run": "as §1"}, "[3]": {"compound": "C[C@@H](N)c1ccc(C(=O)Nc2ccnc3[nH]ccc23)cc1 + Cc1nc(Nc2ncc(C(=O)Nc3c(C)cccc3Cl)s2)cc(N2CCN(CCO)CC2)n1 [Dasatinib] (partner 0.075 µM)", "how_it_was_run": "as §1"}, "[4]": {"compound": "O[C@H]1CC[C@H](Nc2ncc3nc(Nc4c(F)cc(F)cc4F)n([C@H]4CCOC4)c3n2)CC1 [Tanzisertib] + O=C(CCCCCCC(=O)Nc1ccccc1)NO [Vorinostat] (partner 1 µM)", "how_it_was_run": "as §1"}}}
{"cell line": "UMC-11", "values": [{"measurement": "relative viability", "setting": "[1]; first compound 0.04 µM", "value": 1.08}, {"measurement": "relative viability", "setting": "[1]; first compound 0.1265 µM", "value": 1.06}, {"measurement": "relative viability", "setting": "[1]; first compound 0.4 µM", "value": 1.04}, {"measurement": "relative viability", "setting": "[1]; first compound 1.265 µM", "value": 0.989}, {"measurement": "relative viability", "setting": "[1]; first compound 4 µM", "value": 0.826}, {"measurement": "relative viability", "setting": "[2]; first compound 0.04 µM", "value": 0.215}, {"measurement": "relative viability", "setting": "[2]; first compound 0.1265 µM", "value": 0.18}, {"measurement": "relative viability", "setting": "[2]; first compound 0.4 µM", "value": 0.205}, {"measurement": "relative viability", "setting": "[2]; first compound 4 µM", "value": 0.198}, {"measurement": "relative viability", "setting": "[3]; first compound 0.04 µM", "value": 0.543}, {"measurement": "relative viability", "setting": "[3]; first compound 0.1265 µM", "value": 0.482}, {"measurement": "relative viability", "setting": "[3]; first compound 0.4 µM", "value": 0.58}, {"measurement": "relative viability", "setting": "[3]; first compound 1.265 µM", "value": 0.518}, {"measurement": "relative viability", "setting": "[3]; first compound 4 µM", "value": 0.527}, {"measurement": "relative viability", "setting": "[4]; first compound 0.08 µM", "value": 0.41}, {"measurement": "relative viability", "setting": "[4]; first compound 0.253 µM", "value": 0.401}, {"measurement": "relative viability", "setting": "[4]; first compound 0.8 µM", "value": 0.438}, {"measurement": "relative viability", "setting": "[4]; first compound 2.53 µM", "value": 0.404}, {"measurement": "relative viability", "setting": "[4]; first compound 8 µM", "value": 0.388}]}
